From ChEMBL document CHEMBL3991601, “The target landscape of clinical kinase drugs” (Science, 2017)
Active and inactive are the calls of the source. Rule as the data show it, for most assays here: actives have a measured Kd and inactives only a lower limit.

Assays:
[1] = target: T1, Very long-chain specific acyl-CoA dehydrogenase, mitochondrial (Homo sapiens, UniProt P49748)
T1 sequence (P49748 whole entry): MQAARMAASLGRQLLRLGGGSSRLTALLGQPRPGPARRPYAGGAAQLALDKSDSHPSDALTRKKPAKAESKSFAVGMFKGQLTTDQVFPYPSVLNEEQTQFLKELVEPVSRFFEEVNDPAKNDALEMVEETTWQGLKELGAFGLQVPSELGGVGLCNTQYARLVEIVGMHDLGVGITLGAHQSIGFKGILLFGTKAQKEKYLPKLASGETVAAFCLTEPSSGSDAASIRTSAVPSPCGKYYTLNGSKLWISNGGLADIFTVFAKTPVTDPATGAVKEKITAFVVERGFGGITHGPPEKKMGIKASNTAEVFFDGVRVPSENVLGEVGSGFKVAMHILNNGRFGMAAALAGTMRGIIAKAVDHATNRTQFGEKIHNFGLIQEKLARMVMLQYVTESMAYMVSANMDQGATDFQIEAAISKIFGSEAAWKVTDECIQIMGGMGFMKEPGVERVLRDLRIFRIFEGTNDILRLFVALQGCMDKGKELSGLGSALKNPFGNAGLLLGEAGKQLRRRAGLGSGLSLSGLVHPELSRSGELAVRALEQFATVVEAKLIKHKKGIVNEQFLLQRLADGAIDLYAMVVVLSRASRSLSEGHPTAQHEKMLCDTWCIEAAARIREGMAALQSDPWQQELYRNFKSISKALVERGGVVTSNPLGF

[2] = target: Cyclin-dependent kinase 6 (Homo sapiens, UniProt Q00534)
[3] = target: T2, Serine/threonine-protein kinase Chk1 (Homo sapiens, UniProt O14757)
T2 sequence (O14757 whole entry): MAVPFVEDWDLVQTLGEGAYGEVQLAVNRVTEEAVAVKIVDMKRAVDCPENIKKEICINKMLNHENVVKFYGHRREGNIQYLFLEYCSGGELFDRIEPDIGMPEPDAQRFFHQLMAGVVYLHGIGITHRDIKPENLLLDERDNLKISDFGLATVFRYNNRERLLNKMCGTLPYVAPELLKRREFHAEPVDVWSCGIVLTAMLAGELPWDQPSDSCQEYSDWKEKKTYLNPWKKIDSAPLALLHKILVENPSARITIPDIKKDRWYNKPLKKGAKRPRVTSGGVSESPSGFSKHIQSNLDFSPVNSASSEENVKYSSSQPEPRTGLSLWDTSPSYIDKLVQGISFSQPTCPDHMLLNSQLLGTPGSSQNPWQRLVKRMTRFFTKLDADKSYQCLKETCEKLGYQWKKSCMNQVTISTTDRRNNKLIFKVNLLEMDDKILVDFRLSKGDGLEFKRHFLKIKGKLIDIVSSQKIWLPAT

[4] = target: Dual specificity tyrosine-phosphorylation-regulated kinase 1A (Homo sapiens, UniProt Q13627)
[5] = target: Eukaryotic translation initiation factor 2-alpha kinase 1 (Homo sapiens, UniProt Q9BQI3)
[6] = target: T3, Interleukin-1 receptor-associated kinase 4 (Homo sapiens, UniProt Q9NWZ3)
T3 sequence (Q9NWZ3 whole entry): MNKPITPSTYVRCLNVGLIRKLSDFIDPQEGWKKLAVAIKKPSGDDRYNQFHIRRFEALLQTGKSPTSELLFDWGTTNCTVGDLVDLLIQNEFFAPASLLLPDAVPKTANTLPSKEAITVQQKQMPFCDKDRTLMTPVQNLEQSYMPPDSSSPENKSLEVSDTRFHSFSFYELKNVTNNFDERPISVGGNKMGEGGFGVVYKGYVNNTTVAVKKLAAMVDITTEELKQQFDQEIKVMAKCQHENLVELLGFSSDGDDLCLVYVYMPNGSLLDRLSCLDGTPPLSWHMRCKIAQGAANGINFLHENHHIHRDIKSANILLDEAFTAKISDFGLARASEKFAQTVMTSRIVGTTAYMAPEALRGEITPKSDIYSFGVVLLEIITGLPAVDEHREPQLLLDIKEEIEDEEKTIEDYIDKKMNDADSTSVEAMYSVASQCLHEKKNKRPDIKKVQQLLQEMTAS

[7] = target: Platelet-derived growth factor receptor beta (Homo sapiens, UniProt P09619)
[8] = target: Serine/threonine-protein kinase N2 (Homo sapiens, UniProt Q16513)
[9] = target: T4, Serine/threonine-protein kinase PLK4 (Homo sapiens, UniProt O00444)
T4 sequence (O00444 whole entry): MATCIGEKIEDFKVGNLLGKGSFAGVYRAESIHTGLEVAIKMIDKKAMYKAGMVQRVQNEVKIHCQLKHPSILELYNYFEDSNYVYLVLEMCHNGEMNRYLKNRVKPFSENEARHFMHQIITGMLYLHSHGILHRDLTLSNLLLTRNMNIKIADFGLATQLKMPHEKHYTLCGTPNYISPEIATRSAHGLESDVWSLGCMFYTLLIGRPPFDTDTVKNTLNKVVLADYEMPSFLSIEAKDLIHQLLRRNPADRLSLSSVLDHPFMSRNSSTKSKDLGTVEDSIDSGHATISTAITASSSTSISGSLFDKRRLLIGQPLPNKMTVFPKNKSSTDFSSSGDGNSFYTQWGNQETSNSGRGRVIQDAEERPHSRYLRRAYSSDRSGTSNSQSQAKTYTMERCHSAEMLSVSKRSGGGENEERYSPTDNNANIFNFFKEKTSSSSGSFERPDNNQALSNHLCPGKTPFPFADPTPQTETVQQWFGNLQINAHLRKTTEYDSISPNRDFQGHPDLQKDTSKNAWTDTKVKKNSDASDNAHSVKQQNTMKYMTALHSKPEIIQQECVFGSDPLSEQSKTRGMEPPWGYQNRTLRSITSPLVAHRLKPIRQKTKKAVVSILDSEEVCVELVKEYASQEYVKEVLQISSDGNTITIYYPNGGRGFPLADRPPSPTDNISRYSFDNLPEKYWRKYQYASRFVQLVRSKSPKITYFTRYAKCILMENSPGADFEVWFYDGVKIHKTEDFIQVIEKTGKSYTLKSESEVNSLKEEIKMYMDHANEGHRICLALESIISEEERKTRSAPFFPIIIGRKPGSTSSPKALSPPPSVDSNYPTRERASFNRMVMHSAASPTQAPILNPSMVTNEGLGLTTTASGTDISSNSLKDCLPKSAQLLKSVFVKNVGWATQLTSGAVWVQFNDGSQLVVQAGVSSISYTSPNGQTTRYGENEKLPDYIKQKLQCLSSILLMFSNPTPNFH

[10] = target: Serine/threonine-protein kinase SIK3 (Homo sapiens, UniProt Q9Y2K2)
[11] = target: Serine/threonine-protein kinase 10 (Homo sapiens, UniProt O94804)
Also: in the data inactive means no Kd found up to 30 µM.

Chain of Serine/threonine-protein kinase N2 (Q16513 whole entry): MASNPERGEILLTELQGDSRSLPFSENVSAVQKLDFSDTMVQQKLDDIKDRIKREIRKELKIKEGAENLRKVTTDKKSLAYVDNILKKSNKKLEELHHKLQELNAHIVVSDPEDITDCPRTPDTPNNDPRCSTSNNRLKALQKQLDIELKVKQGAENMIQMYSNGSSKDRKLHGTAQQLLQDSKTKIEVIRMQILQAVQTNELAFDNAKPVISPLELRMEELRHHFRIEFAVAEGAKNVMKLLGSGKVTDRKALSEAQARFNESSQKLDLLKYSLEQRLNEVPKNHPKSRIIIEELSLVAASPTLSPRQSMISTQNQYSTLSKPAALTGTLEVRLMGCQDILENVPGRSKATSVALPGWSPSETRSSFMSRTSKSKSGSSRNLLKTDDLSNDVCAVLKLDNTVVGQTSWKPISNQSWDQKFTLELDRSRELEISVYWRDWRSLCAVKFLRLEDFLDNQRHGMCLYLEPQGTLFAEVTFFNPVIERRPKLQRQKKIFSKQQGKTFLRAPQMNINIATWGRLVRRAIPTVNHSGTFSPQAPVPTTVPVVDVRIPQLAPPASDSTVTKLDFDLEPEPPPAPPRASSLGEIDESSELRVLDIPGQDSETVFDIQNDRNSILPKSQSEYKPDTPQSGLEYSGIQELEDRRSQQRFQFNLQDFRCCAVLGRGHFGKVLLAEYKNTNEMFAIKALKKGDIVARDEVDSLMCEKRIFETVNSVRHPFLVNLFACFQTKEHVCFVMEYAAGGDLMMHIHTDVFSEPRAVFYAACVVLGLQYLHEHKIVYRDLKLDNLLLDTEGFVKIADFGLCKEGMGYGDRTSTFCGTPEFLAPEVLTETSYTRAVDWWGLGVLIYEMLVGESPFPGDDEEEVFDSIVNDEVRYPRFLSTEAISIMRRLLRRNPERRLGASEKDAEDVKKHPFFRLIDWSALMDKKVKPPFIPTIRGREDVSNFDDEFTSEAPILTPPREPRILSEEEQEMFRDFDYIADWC
Chain of Serine/threonine-protein kinase SIK3 (Q9Y2K2 whole entry): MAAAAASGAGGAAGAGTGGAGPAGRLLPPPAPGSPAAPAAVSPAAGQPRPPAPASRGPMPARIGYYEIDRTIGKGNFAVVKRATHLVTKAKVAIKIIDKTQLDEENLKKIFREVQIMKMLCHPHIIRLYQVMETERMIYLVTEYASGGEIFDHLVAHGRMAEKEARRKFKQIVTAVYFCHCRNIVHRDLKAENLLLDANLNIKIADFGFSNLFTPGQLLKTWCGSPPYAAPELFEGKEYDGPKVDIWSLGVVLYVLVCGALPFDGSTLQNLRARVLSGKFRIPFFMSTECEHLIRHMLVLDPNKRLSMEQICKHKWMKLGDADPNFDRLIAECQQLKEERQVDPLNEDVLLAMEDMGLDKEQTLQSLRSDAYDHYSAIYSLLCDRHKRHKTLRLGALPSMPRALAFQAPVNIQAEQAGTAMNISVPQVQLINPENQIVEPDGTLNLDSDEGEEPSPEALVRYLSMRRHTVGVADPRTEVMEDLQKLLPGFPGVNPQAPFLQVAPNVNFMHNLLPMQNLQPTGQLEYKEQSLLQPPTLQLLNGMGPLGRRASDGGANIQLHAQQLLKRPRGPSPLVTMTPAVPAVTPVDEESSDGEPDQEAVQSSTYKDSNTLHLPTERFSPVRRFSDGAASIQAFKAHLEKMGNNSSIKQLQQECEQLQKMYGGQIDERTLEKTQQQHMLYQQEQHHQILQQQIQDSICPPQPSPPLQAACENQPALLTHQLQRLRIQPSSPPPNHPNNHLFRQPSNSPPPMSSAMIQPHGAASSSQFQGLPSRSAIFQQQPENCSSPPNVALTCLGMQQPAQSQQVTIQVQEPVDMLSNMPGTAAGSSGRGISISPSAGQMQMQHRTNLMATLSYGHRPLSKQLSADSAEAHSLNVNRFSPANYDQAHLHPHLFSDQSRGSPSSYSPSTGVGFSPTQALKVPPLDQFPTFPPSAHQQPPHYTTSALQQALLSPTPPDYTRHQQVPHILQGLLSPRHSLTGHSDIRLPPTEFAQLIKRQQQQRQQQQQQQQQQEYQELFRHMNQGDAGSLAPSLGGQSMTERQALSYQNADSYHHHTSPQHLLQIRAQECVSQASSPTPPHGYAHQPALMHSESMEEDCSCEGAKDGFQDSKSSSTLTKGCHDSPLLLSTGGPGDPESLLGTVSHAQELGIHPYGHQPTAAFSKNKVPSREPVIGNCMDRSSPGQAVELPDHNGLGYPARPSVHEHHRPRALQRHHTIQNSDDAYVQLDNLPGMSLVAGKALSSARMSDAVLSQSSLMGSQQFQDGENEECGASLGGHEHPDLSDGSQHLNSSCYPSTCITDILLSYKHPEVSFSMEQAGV
Chain of Eukaryotic translation initiation factor 2-alpha kinase 1 (Q9BQI3 whole entry): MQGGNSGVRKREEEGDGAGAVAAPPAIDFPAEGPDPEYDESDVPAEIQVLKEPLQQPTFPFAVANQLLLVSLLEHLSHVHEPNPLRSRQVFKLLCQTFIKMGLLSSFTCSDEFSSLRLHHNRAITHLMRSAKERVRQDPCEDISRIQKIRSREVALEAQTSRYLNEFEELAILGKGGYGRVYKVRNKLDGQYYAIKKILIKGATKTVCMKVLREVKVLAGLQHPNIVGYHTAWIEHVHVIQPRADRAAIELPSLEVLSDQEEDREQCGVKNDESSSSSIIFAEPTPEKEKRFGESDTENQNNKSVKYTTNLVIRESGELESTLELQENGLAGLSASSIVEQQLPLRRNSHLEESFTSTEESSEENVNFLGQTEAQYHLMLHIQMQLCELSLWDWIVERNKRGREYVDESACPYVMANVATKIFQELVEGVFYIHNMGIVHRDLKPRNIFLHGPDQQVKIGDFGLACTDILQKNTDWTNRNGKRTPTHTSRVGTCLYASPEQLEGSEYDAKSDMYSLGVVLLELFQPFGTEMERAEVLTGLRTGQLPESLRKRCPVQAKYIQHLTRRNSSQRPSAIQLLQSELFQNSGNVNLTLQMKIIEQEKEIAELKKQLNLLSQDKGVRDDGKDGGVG
Chain of Serine/threonine-protein kinase 10 (O94804 whole entry): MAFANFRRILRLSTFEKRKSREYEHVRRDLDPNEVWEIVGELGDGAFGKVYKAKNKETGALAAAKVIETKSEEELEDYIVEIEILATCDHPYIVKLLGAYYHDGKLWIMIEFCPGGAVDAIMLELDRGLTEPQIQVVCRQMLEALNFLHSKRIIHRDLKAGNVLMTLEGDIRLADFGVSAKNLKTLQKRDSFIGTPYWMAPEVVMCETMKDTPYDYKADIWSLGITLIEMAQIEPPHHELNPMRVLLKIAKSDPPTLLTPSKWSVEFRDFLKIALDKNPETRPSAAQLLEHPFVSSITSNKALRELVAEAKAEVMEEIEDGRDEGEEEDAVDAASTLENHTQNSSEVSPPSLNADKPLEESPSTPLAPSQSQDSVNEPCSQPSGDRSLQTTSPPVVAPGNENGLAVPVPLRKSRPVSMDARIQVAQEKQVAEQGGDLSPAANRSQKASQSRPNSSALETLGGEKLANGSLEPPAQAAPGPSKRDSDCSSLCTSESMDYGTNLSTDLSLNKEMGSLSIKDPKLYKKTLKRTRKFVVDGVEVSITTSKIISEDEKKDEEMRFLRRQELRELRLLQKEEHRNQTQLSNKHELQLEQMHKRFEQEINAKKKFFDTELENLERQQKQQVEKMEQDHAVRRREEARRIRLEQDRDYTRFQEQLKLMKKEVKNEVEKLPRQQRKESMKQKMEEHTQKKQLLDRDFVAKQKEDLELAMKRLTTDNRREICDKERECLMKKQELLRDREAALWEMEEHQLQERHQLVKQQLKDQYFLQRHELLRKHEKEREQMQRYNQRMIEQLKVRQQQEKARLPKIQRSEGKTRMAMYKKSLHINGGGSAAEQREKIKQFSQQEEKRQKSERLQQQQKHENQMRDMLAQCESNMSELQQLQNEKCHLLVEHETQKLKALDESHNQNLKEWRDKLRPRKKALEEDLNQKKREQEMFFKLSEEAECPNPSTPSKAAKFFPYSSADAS
Chain of Cyclin-dependent kinase 6 (Q00534 whole entry): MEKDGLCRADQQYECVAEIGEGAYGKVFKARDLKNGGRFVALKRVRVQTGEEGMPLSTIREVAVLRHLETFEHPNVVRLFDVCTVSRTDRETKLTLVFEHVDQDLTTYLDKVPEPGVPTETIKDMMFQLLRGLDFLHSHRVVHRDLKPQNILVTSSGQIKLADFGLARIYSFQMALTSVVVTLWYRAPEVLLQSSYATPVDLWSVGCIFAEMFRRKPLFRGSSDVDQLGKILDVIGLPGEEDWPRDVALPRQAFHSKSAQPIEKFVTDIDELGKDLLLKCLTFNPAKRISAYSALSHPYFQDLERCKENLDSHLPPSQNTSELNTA

| Structure (SMILES) | Kd [1] | Kd [2] | Kd [3] | Kd [4] | Kd [5] | Kd [6] | Kd [7] | Kd [8] | Kd [9] | Kd [10] | Kd [11] |
| --- | --- | --- | --- | --- | --- | --- | --- | --- | --- | --- | --- |
| Cn1ncc(Cl)c1-c1cc(C(=O)N[C@H](CN)Cc2ccc(F)c(F)c2)oc1Cl [UPROSERTIB] | > 30 µM (inactive) | > 30 µM (inactive) | > 30 µM (inactive) | 0.238 µM | > 30 µM (inactive) | > 30 µM (inactive) | > 30 µM (inactive) | > 30 µM (inactive) | > 30 µM (inactive) | > 30 µM (inactive) | > 30 µM (inactive) |
| CCCCCCCCCCCCCCCCCCOP(=O)([O-])OC1CC[N+](C)(C)CC1 [PERIFOSINE] | > 30 µM (inactive) | > 30 µM (inactive) | > 30 µM (inactive) | > 30 µM (inactive) | > 30 µM (inactive) | > 30 µM (inactive) | > 30 µM (inactive) | > 30 µM (inactive) | > 30 µM (inactive) | > 30 µM (inactive) | > 30 µM (inactive) |
| COc1ncc(-c2ccc3nccc(-c4ccnnc4)c3c2)cc1NS(=O)(=O)c1ccc(F)cc1F [OMIPALISIB] | > 30 µM (inactive) | > 30 µM (inactive) | > 30 µM (inactive) | > 30 µM (inactive) | > 30 µM (inactive) | > 30 µM (inactive) | > 30 µM (inactive) | > 30 µM (inactive) | > 30 µM (inactive) | > 30 µM (inactive) | > 30 µM (inactive) |
| C[C@H]1CNCCCN1S(=O)(=O)c1cccc2cncc(F)c12 | > 30 µM (inactive) | > 30 µM (inactive) | > 30 µM (inactive) | > 30 µM (inactive) | > 30 µM (inactive) | > 30 µM (inactive) | > 30 µM (inactive) | 0.285 µM (active) | 8.14 µM (active) | > 30 µM (inactive) | > 30 µM (inactive) |
| C[C@@H](Oc1cc(C(=O)Nc2ccc(C(=O)N3CCN(C)CC3)cc2)nnc1N)c1c(Cl)ccc(F)c1Cl | > 30 µM (inactive) | > 30 µM (inactive) | > 30 µM (inactive) | > 30 µM (inactive) | > 30 µM (inactive) | > 30 µM (inactive) | > 30 µM (inactive) | > 30 µM (inactive) | > 30 µM (inactive) | > 30 µM (inactive) | > 30 µM (inactive) |
| Cc1cccc(-c2nn3c(c2-c2ccnc4ccc(C(N)=O)cc24)CCC3)n1 [GALUNISERTIB] | > 30 µM (inactive) | > 30 µM (inactive) | > 30 µM (inactive) | > 30 µM (inactive) | > 30 µM (inactive) | > 30 µM (inactive) | > 30 µM (inactive) | > 30 µM (inactive) | > 30 µM (inactive) | > 30 µM (inactive) | > 30 µM (inactive) |
| O=C(Nc1nc2cccc(-c3ccc(CN4CCS(=O)(=O)CC4)cc3)n2n1)C1CC1 [FILGOTINIB] | > 30 µM (inactive) | > 30 µM (inactive) | > 30 µM (inactive) | > 30 µM (inactive) | > 30 µM (inactive) | > 30 µM (inactive) | > 30 µM (inactive) | > 30 µM (inactive) | > 30 µM (inactive) | > 30 µM (inactive) | 1.91 µM (active) |
| Cc1nc(Nc2n[nH]c3c2CN(C(=O)N[C@H](CN(C)C)c2ccccc2)C3(C)C)c2sccc2n1 [PF-03758309] | > 30 µM (inactive) | > 30 µM (inactive) | 0.21 µM (active) | > 30 µM (inactive) | > 30 µM (inactive) | > 30 µM (inactive) | 29.7 µM | > 30 µM (inactive) | 0.668 µM (active) | > 30 µM (inactive) | > 30 µM (inactive) |
| COc1cc([C@@H]2c3cc4c(cc3[C@H](O)[C@H]3COC(=O)[C@@H]23)OCO4)cc(OC)c1OC [AXL-1717] | > 30 µM (inactive) | > 30 µM (inactive) | > 30 µM (inactive) | > 30 µM (inactive) | > 30 µM (inactive) | > 30 µM (inactive) | > 30 µM (inactive) | > 30 µM (inactive) | > 30 µM (inactive) | > 30 µM (inactive) | > 30 µM (inactive) |
| Cc1csc(-c2nnc(Nc3ccc(Oc4ncccc4-c4ccnc(N)n4)cc3)c3ccccc23)c1 [AMG-900] | > 30 µM (inactive) | > 30 µM (inactive) | > 30 µM (inactive) | > 30 µM (inactive) | > 30 µM (inactive) | > 30 µM (inactive) | > 30 µM (inactive) | > 30 µM (inactive) | > 30 µM (inactive) | > 30 µM (inactive) | > 30 µM (inactive) |
| COCc1c(-c2ccc(NC(=O)Nc3cc(C(F)(F)F)ccc3F)c(F)c2)c2c(N)ncnn2c1CN1CCOCC1 | > 30 µM (inactive) | > 30 µM (inactive) | > 30 µM (inactive) | > 30 µM (inactive) | > 30 µM (inactive) | > 30 µM (inactive) | > 30 µM (inactive) | > 30 µM (inactive) | > 30 µM (inactive) | > 30 µM (inactive) | > 30 µM (inactive) |
| Nc1ncnc2c1c(-c1cccc(OCc3ccccc3)c1)cn2[C@H]1C[C@@H](CN2CCC2)C1 [AEW-541] | > 30 µM (inactive) | > 30 µM (inactive) | > 30 µM (inactive) | > 30 µM (inactive) | > 30 µM (inactive) | > 30 µM (inactive) | > 30 µM (inactive) | > 30 µM (inactive) | > 30 µM (inactive) | > 30 µM (inactive) | > 30 µM (inactive) |
| C=CC(=O)N1CCC[C@H](n2c(=O)n(-c3ccc(Oc4ccccc4)cc3)c3c(N)ncnc32)C1 | > 30 µM (inactive) | > 30 µM (inactive) | > 30 µM (inactive) | > 30 µM (inactive) | > 30 µM (inactive) | > 30 µM (inactive) | > 30 µM (inactive) | > 30 µM (inactive) | > 30 µM (inactive) | > 30 µM (inactive) | > 30 µM (inactive) |
